# In patent US20260007634A1, “PHARMACEUTICAL COMPOSITIONS FOR THE TREATMENT OF ALLERGIC DISEASES” (KINKI UNIVERSITY, priority 2022, published 2026):
# Experiments:
# [1] = system: IL-5; test: Auricular tissue IL-5 ELISA, atopic dermatitis mice; format: in vivo, mouse; settings: day 7, topical application, control 15, vehicle 32
# Procedure: MC903 at 2 nM was applied to the right auricle of a 6-week-old male Balb/c (Japan SLC Inc.). Starting 8 h later, 5% norathyriol aqueous solution (1 mL of ethanol containing […] of norathyriol), betamethasone ointment, and delgocitinib ointment were applied to the auricle for 7 days. The measurement of auricular skin swelling was calculated by calipers. The day on which the first application of the compound was made was defined as day 0. Betamethasone and delgocitinib are currently in clinical use in atopic dermatitis and were used as control drugs in this example.
# The mouse IL-5 ELISA kit (R&D) was used for this measurement.
# [2] = system: TNFα; test: BAFF-induced TNFα secretion in B cells (ELISA); format: cell-based, mouse; settings: DBA/1J spleen B cells; 10 μM compound, 100 ng/mL BAFF, 7 days; control 11.34, BAFF only 230.64
# Procedure: Spleens were harvested from 6-week-old male DBA/1J mice and B cells were isolated. After isolation, the cells were cultured in RPMI 1640 medium for 1 day. Then, 10 μM mangiferin 8a and 10 μM norathyriol were added to B cells, and 100 ng/mL of BAFF was added to each 3 h later, and the cells were cultured for 7 days. After 7 days of culture, the culture supernatant was collected and TNFα secretion was measured by enzyme-linked immunosorbent assay (ELISA). This assay was performed using a mouse TNFα ELISA kit (R&D).
compound,measurement,setting,value
"O=c1c2cc(O)c(O)cc2oc2cc(O)cc(O)c12 [norathyriol, 1,3,6,7-tetrahydroxyxanthone]",IL-5 secretion,[1],14 pg/mL
same,TNFα secretion,[2],45.07 pg/mL
